According to patent publication US20250177371A1, “CFTR MODULATORS FOR THE TREATMENT OF VASCULAR DISEASE” (priority 2022, published 2025):
Entries after “also recorded” stand apart in the source; their conditions may differ.

How the values were obtained:
COVID-19 patients = conditions: treatment of COVID-19; cited from earlier work
[1] = tested on: platelets from COVID-19 patients and healthy donors (hirudin whole blood); assay: Multiple Electrode Aggregometry (Multiplate analyzer); format: cell-based, human; conditions: 10 µM ivacaftor 15 min, ADP, TRAP6 or PAF, significance only for individual agonist-platelet combinations
Experimental: Multiple Electrode Aggregometry: Whole blood impedance measurement using Multiple Electrode Aggregometry (MEA) was performed on the Multiplate® analyzer by Roche (Basel, Switzerland)). Hirudin whole blood samples were treated with either vehicle (DMSO), 10 µM ivacaftor or 5 μM forskolin for 15 min at 37° C.

[2] = tested on: platelets isolated from blood of healthy donors; assay: Flow cytometry of surface expression of activation markers CD62p and CD63 on platelets; format: cell-based, human; conditions: platelets pre-treated 24 h with 10 µM ivacaftor or 5 µM forskolin prior to 50 µM ADP, 50 µM TRAP6 or 5 µM PAF
Experimental: Flow Cytometry: Blood samples were collected and stained as previously described3. In brief, blood was directly stained in dilution buffer (NaCl 137 mM, KCl 2.7 mM, MgCl2 1 mM, 4-(2-hydroxyethyl)-1-piperazineethanesulfonic acid (HEPES) 20 mM, glucose 5.6 mM, bovine serum albumin 1 g/l, pH 7.4.) containing mouse anti-human anti-CD42b (GPlb) Phycoerythrin (PE, clone HIP1), anti-CD62p (P-selectin) Phycoerythrin-Cyanine 7 (PE/Cy7, clone AK4), anti-CD63 (GP53) and Brilliant Violet 421 (clone H5C6), all from BioLegend (San Diego, CA, USA), before cells were fixed with 2 mL of 0.2% PFA in PBS. In order to analyze isolated platelets, total citrate blood was centrifuged at 150 g for 15 min to separate platelet rich plasma (PRP) from blood cells. PRP was collected and centrifuged again at 1000 g for 15 min. Platelets were subsequently resuspended in 10% CPDA buffer in PBS (Sigma-Aldrich (St. Louis, MO, USA)) and incubated for 24 h in the presence of either vehicle (DMSO, Sigma-Aldrich (St. Louis, MO, USA)), 10 µM ivacaftor (Cayman Chemicals, Ann Arbor, MI, USA)) or 5 µM forskolin (Fisher Scientific (Pittsburgh, PA, USA)) before staining was applied as described above. […] All measurements were analyzed with FlowJo (version 8, Tree Star, Inc., Ashland, OR, USA).

[3] = tested on: platelets of healthy donors or severe COVID-19 patients; assay: Analysis of Ca2+ transients (Indo-1 AM, FACS); format: cell-based, human; conditions: 10 µM ivacaftor pretreatment; ADP, TRAP6 or PAF; healthy donors and severe COVID-19; except TRAP6 stimulated healthy platelets
Experimental: Analysis of Ca2+ transients: Platelet rich plasma (PRP) was stained with anti-CD42b, and loaded with Indo-1 AM (Invitrogen, Waltham, MA, USA)) for 30 min at 37° C. together in the presence of either vehicle (DMSO, 10 µM ivacaftor or 5 µM forskolin) under mild agitation. Stained PRP was diluted in Tyrode's Buffer (134 mM NaCl, 12 mM NaHCO3, 2.90 mM KCl, 0.34 mM Na2HPO4, 3 mM MgCl2, 2 mM CaCI2, 20 mM HEPES, 5 mM Glucose, pH 7.4.) complemented with heparin and […] before the fluorescence ratio of Ca2+-bound Indo-1 (405 nm) to Ca2+-unbound Indo-1 (530 nm) of CD42b+ platelets was monitored on a FACSymphony™ A5 (BD Biosciences, Franklin Lakes, NJ, USA) equipped with a ultraviolet (355 nm), violet (405 nm), blue (488 nm), yellow (561 nm), and red (637 nm) solid-state laser. After basal Ca2+ concentrations were monitored for 30 s, platelets were stimulated with either 5 μM PAF (Tocris Bioscience (Bristol, England, GB)), 50 μM ADP (Sigma-Aldrich, St. Louis, MO, USA) or 50 μM TRAP-6 (purchased from Cayman Chemicals (Ann Arbor, MI, USA)) before changes in intracellular Ca2+ concentration ([Ca2+] i) were monitored for additional 2 min. Results are expressed in arbitrary units as areaunder the curve (AUC).

[4] = tested on: platelets in whole blood of COVID-19 patients and healthy donors; assay: Vascular Injury Flow Assay (platelet adhesion on collagen IV); format: cell-based, human
Experimental: Vascular Injury Flow Assay: Citrated blood was stained with anti-CD42b ((GPlb) Allophycocyanin (APC, clone REA 185, Miltenyi Biotec, Bergisch Gladbach, Germany)) and treated with either vehicle (DMSO), 10 μM ivacaftor or 5 µM forskolin for 15 min at 37° C. before the microfluidic flow assay was performed as previously described2. In brief, pretreated whole blood was diluted 1:4 with modified Tyrode's Buffer (134 mM NaCl, 12 mM NaHCO3, 2.90 mM KCl, 0.34 mM Na2HPO4, 3 mM MgCl2, 2.1 mM CaCl2), 20 mM HEPES, 5 mM Glucose, 1 g/l BSA, adjusted to a pH of 7.4.) immediately before perfusion with a flow rate of 20 mL/h for 5 min through collagen IV coated microchannel flow chambers (6 Channel μ-Slide VI 0.4, Ibidi, Martinsried, Germany). After perfusion, cells were fixed with 4% PFA for 30 min and washed thoroughly with PBS. Five randomly selected regions of interest (ROI) for each experimental condition were imaged with an Invitrogen™ EVOS™ fluorescent microscope and quantification of the total CD42b+ covered area was carried out with ImageJ (Version […] by the US National Institutes of Health and the LOCI, University of Wisconsin).

| SMILES | reduction in thromboembolic events (COVID-19 patients) | agonist-induced aggregation of platelets (AUC) [1] | agonist-induced aggregation of platelets (AUC) ([1]; listed as Ivacaftor) | agonist-induced upregulation of CD62p and CD63 (platelet activation) [2] | agonist-induced [Ca2+]i increase (AUC) [3] | agonist-induced platelet adhesion (CD42b+ total area) ([4]; 10 μM ivacaftor 15 min, ADP, TRAP-6 or PAF, significance for most agonist-platelet combinations) | adhesion of both unstimulated and stimulated platelets ([4]; whole blood of severe COVID-19 patients) |
| --- | --- | --- | --- | --- | --- | --- | --- |
| COc1ccc(-n2nc(C(N)=O)c3c2C(=O)N(c2ccc(N4CCCCC4=O)cc2)CC3)cc1 [apixaban] | failed to yield a significant reduction | – | – | – | – | – | – |
| CC(=O)Oc1ccccc1C(=O)O [aspirin] | failed to yield a significant reduction; also recorded: failed to show a significant reduction | – | – | – | – | – | – |
| CC(C)(C)c1cc(C(C)(C)C)c(NC(=O)c2c[nH]c3ccccc3c2=O)cc1O [ivacaftor, N-(5-hydroxy-15 2,4-ditert-butyl-phenyl)-4-oxo-1 H-quinoline-3-carboxamide] | – | reduces; also recorded: general trend to reduce; also recorded: attenuates | significantly attenuates | prevented; also recorded: attenuates; also recorded: normalized | attenuates; also recorded: significant reduction; also recorded: significantly attenuated | reduces; also recorded: general trend to reduce; also recorded: attenuates | reduced |
